In the NIST ThermoML archive (doi:10.1016/j.fluid.2015.07.017):
± gives the expanded uncertainty stated by the source.

Legend:
[1] = Boiling temperature at pressure P; details: Liquid, Ebulliometric method (Recirculating still)
[2] = refractive index (Na D-line) (dimensionless); details: 298.15 K; 101.33 kPa; Liquid; Standard Abbe refractometry
[3] = 293.15 K; 101.33 kPa; Liquid; Pycnometric method

| Boiling temperature at pressure P ([1]; 101.33 kPa) | refractive index [2] | mass density [3] | Boiling temperature at pressure P ([1]; 8.17 kPa) | Boiling temperature at pressure P ([1]; 12.41 kPa) | Boiling temperature at pressure P ([1]; 18.11 kPa) | Boiling temperature at pressure P ([1]; 26.67 kPa) | Boiling temperature at pressure P ([1]; 36.4 kPa) | Boiling temperature at pressure P ([1]; 44.6 kPa) | Boiling temperature at pressure P ([1]; 53.33 kPa) | Boiling temperature at pressure P ([1]; 59.35 kPa) | Boiling temperature at pressure P ([1]; 69.65 kPa) | Boiling temperature at pressure P ([1]; 79.9 kPa) | Boiling temperature at pressure P ([1]; 87.9 kPa) | Boiling temperature at pressure P ([1]; 94.9 kPa) | Boiling temperature at pressure P ([1]; 112 kPa) | Structure (SMILES) |
| --- | --- | --- | --- | --- | --- | --- | --- | --- | --- | --- | --- | --- | --- | --- | --- | --- |
| 97.20 ± 0.1 °C | 1.3836 ± 0.0007 | 803.7 ± 0.7 kg/m3 | – | – | – | – | – | – | – | – | – | – | – | – | – | CCCO [propan-1-ol] |
| 92.97 ± 0.1 °C | 1.3757 ± 0.0007 | 841.4 ± 0.8 kg/m3 | 29.97 ± 0.11 °C | 38.00 ± 0.11 °C | 46.03 ± 0.1 °C | 54.81 ± 0.1 °C | 62.67 ± 0.1 °C | 68.11 ± 0.1 °C | 73.17 ± 0.1 °C | 76.2 ± 0.1 °C | 81.07 ± 0.1 °C | 85.2 ± 0.1 °C | 88.33 ± 0.1 °C | 90.82 ± 0.1 °C | 96.14 ± 0.1 °C | CCCOCOC [1-(methoxymethoxy)propane] |
| 64.71 ± 0.1 °C | 1.3269 ± 0.0007 | 791.1 ± 0.7 kg/m3 | – | – | – | – | – | – | – | – | – | – | – | – | – | CO [methanol] |
